From the supplement of paper PMC11208160

Test: recombinant UMI read abundance after kanamycin selection (control-corrected) (log10(CPM+1)); higher = more efficient recombination; extreme values may be limits of the assay; sequences stand for … in AGTGCAGAGAAAATCGGCCAGTTTTCTCTGCCTGCAGTCCGCATGCCGTGGGACCCCTTGGGTTCTAACCTGTTGCCTAGATTTATGCAGCGGACTGCCTTTCTCCCAAAGTGATAAACCGG…AGGTTGGTTTCACT; site = the 11-nt donor
Procedure, shortened: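 Sequenced counts of recombinant UMIs were turned into CPM, averaged across replicates and scaled with control-derived factors. The reported figure is log10(CPM+1). Those UMIs, each 12 nt long, tagged donor and donor-binding-loop pairs on a plasmid with a promoterless kanamycin gene, screened as a pool in Escherichia coli with IPTG (0.07 mM) plus kanamycin or without selection.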
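Note: IS621 bridge recombinase in Escherichia coli cells against a fixed T5 target plasmid.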

Sequence	recombinant UMI read abundance (log10)
GCAAGTGCATGGACCGGTTTTCCCGGTAATCCGTATTTGTC (site GCAAGTGCTGA)	0
GCAATATCATGGACCGGTTTTCCCGGTAATCCGTATTTGCA (site ACAGTATCTTG)	1.37
GCAATATCATGGACCGGTTTTCCCGGTAATCCGTATTTGCA (site GCAATATCTTG)	1.75
GCAATTCCATGGACCGGTTTTCCCGGTAATCCGTATTTGAG (site GCAATTCCTCT)	0.651
GCAATTGCATGGACCGGTTTTCCCGGTAATCCGTATTTGCC (site GCAATTGCTGG)	0
GCAATTTCATGGACCGGTTTTCCCGGTAATCCGTATTTGTA (site GCAATTTCTTA)	2.26
GCACATGCATGGACCGGTTTTCCCGGTAATCCGTATTTGGA (site GCACATGCTTC)	1.05
GCACCTTCATGGACCGGTTTTCCCGGTAATCCGTATTTGTT (site GCACCTTCTAA)	1.09
GCACGATCATGGACCGGTTTTCCCGGTAATCCGTATTTGTA (site GCACGATCTTA)	2.74
GCACTGCCATGGACCGGTTTTCCCGGTAATCCGTATTTGCT (site GCACTGCCTAG)	1.41
GCACTTCCATGGACCGGTTTTCCCGGTAATCCGTATTTGTT (site GCACTTCCTAA)	0.561
GCAGAAACATGGACCGGTTTTCCCGGTAATCCGTATTTGGC (site GCAGAAACTGC)	2.87
GCAGTAGCATGGACCGGTTTTCCCGGTAATCCGTATTTGCC (site GCAGTAGCTGG)	0.831
GCAGTGGCATGGACCGGTTTTCCCGGTAATCCGTATTTGGT (site GAAGTGGCTAC)	0.0767
GCAGTGGCATGGACCGGTTTTCCCGGTAATCCGTATTTGGT (site GCAGTGGCTAC)	0.668
GCAGTGGCATGGACCGGTTTTCCCGGTAATCCGTATTTGGT (site GGAGTGGCTAC)	0.276
GCAGTGGCATGGACCGGTTTTCCCGGTAATCCGTATTTGGT (site GTAGTGGCTAC)	0.0239
GCATACCCATGGACCGGTTTTCCCGGTAATCCGTATTTGAC (site GCATACCCTGT)	1.04
GCATCAGCATGGACCGGTTTTCCCGGTAATCCGTATTTGTG (site GCATCAGCTCA)	1.49
GCATGGGCATGGACCGGTTTTCCCGGTAATCCGTATTTGAG (site GCATGGGCTCT)	1.33
GCATTATCATGGACCGGTTTTCCCGGTAATCCGTATTTGGC (site GCATTATCTGC)	2.82
GCCAAGCCATGGACCGGTTTTCCCGGTAATCCGTATTTGTA (site GCCAAGCCTTA)	1.69
GCCAAGCCATGGACCGGTTTTCCCGGTAATCCGTATTTGTA (site GCCACGCCTTA)	0.00534
GCCAAGCCATGGACCGGTTTTCCCGGTAATCCGTATTTGTA (site GCCAGGCCTTA)	0.00969
GCCAAGCCATGGACCGGTTTTCCCGGTAATCCGTATTTGTA (site GCCATGCCTTA)	0.00407

Sequence	recombinant UMI read abundance (log10)
GCCACGACATGGACCGGTTTTCCCGGTAATCCGTATTTGTA (site GCCACGACTTA)	2.11
GCCACGACATGGACCGGTTTTCCCGGTAATCCGTATTTGTA (site GCCACGCCTTA)	0.00858
GCCACGACATGGACCGGTTTTCCCGGTAATCCGTATTTGTA (site GCCACGGCTTA)	0.423
GCCACGACATGGACCGGTTTTCCCGGTAATCCGTATTTGTA (site GCCACGTCTTA)	0.283
GCCAGGACATGGACCGGTTTTCCCGGTAATCCGTATTTGTT (site GCCAGGACTAA)	1.71
GCCAGGCCATGGACCGGTTTTCCCGGTAATCCGTATTTGTA (site GCCAAGCCTTA)	0.198
GCCAGGCCATGGACCGGTTTTCCCGGTAATCCGTATTTGTA (site GCCACGCCTTA)	0.00645
GCCAGGCCATGGACCGGTTTTCCCGGTAATCCGTATTTGTA (site GCCAGGCCTTA)	0.112
GCCAGGCCATGGACCGGTTTTCCCGGTAATCCGTATTTGTA (site GCCATGCCTTA)	0.00384
GCCATATCATGGACCGGTTTTCCCGGTAATCCGTATTTGTC (site ACCATATCTGA)	1.74
GCCATATCATGGACCGGTTTTCCCGGTAATCCGTATTTGTC (site CCCATATCTGA)	0.61
GCCATATCATGGACCGGTTTTCCCGGTAATCCGTATTTGTC (site GCCATATCTGA)	1.87
GCCATATCATGGACCGGTTTTCCCGGTAATCCGTATTTGTC (site TCCATATCTGA)	1.87
GCCCACCCATGGACCGGTTTTCCCGGTAATCCGTATTTGAA (site GCCCACCCTTT)	0.362
GCCCCTACATGGACCGGTTTTCCCGGTAATCCGTATTTGCC (site GCCCCTACTGG)	2.33
GCCCGAACATGGACCGGTTTTCCCGGTAATCCGTATTTGTC (site GCCCGAACTGA)	1.98
GCCGACTCATGGACCGGTTTTCCCGGTAATCCGTATTTGCG (site GCCGACTCTCG)	2.35
GCCGAGCCATGGACCGGTTTTCCCGGTAATCCGTATTTGTA (site GCCGAGCCTTA)	0.381
GCCGCACCATGGACCGGTTTTCCCGGTAATCCGTATTTGGA (site GCCGCACCTTC)	0.0196
GCCGCGCCATGGACCGGTTTTCCCGGTAATCCGTATTTGGG (site GCCGCGCCTCC)	0.0148
GCCGTCCCATGGACCGGTTTTCCCGGTAATCCGTATTTGCA (site GCCGTCCCTTG)	0.345
GCCTACCCATGGACCGGTTTTCCCGGTAATCCGTATTTGAA (site GCCTACCCTTT)	0.0461
GCCTAGACATGGACCGGTTTTCCCGGTAATCCGTATTTGGG (site ACCTAGACTCC)	0.186
GCCTAGACATGGACCGGTTTTCCCGGTAATCCGTATTTGGG (site CCCTAGACTCC)	0.0341
GCCTAGACATGGACCGGTTTTCCCGGTAATCCGTATTTGGG (site GCCTAGACTCC)	0.283

Sequence	recombinant UMI read abundance (log10)
GCCTAGACATGGACCGGTTTTCCCGGTAATCCGTATTTGGG (site TCCTAGACTCC)	0.0888
GCCTAGCCATGGACCGGTTTTCCCGGTAATCCGTATTTGCC (site ACCTAGCCTGG)	0
GCCTAGCCATGGACCGGTTTTCCCGGTAATCCGTATTTGCC (site CCCTAGCCTGG)	0
GCCTAGCCATGGACCGGTTTTCCCGGTAATCCGTATTTGCC (site GCCTAGCCTGG)	0
GCCTAGCCATGGACCGGTTTTCCCGGTAATCCGTATTTGCC (site TCCTAGCCTGG)	0
GCCTCCCCATGGACCGGTTTTCCCGGTAATCCGTATTTGGA (site GCCTCCCCTTC)	0.0286
GCCTGGACATGGACCGGTTTTCCCGGTAATCCGTATTTGGC (site GCCTGGACTGC)	0.0803
GCCTTCACATGGACCGGTTTTCCCGGTAATCCGTATTTGTT (site GCCTTCACTAA)	0.931
GCCTTCTCATGGACCGGTTTTCCCGGTAATCCGTATTTGGG (site ACCTTCTCTCC)	0.00678
GCCTTCTCATGGACCGGTTTTCCCGGTAATCCGTATTTGGG (site CCCTTCTCTCC)	0.0122
GCCTTCTCATGGACCGGTTTTCCCGGTAATCCGTATTTGGG (site GCCTTCTCTCC)	0.00741
GCCTTCTCATGGACCGGTTTTCCCGGTAATCCGTATTTGGG (site TCCTTCTCTCC)	0.0193
GCGAAACCATGGACCGGTTTTCCCGGTAATCCGTATTTGGG (site GCGAAACCTCC)	0
GCGAAACCATGGACCGGTTTTCCCGGTAATCCGTATTTGGG (site GCGAACCCTCC)	0.0118
GCGAAACCATGGACCGGTTTTCCCGGTAATCCGTATTTGGG (site GCGAAGCCTCC)	0.0136
GCGAAACCATGGACCGGTTTTCCCGGTAATCCGTATTTGGG (site GCGAATCCTCC)	0
GCGAAACCATGGACCGGTTTTCCCGGTAATCCGTATTTGTG (site GCGAAACCTCA)	0
GCGAACCCATGGACCGGTTTTCCCGGTAATCCGTATTTGAA (site GCGAACCCTTT)	2.49
GCGAACGCATGGACCGGTTTTCCCGGTAATCCGTATTTGCT (site GCGAACGCTAG)	2.26
GCGAAGACATGGACCGGTTTTCCCGGTAATCCGTATTTGTT (site GCGAAGACTAA)	2.37
GCGAAGCCATGGACCGGTTTTCCCGGTAATCCGTATTTGAG (site GCGAAGCCTCA)	0.0311
GCGAAGCCATGGACCGGTTTTCCCGGTAATCCGTATTTGAG (site GCGAAGCCTCC)	0.0267
GCGAAGCCATGGACCGGTTTTCCCGGTAATCCGTATTTGAG (site GCGAAGCCTCG)	0
GCGAAGCCATGGACCGGTTTTCCCGGTAATCCGTATTTGAG (site GCGAAGCCTCT)	0.00807
GCGAAGCCATGGACCGGTTTTCCCGGTAATCCGTATTTGGG (site ACGAAGCCTCC)	0.0189
